Experimental data from US9763942B2, “Serine/threonine kinase inhibitors” (Array BioPharma Inc., priority 2013, dated 2017).
pIC50: −log10 of the molar value.

molecular target: T1, human ERK-2 (Mitogen Activated Kinase 1) (Homo sapiens, UniProt P28482); assay: ERK-2 Enzymatic Assay; format: biochemical; settings: ERK-2 enzymatic assay; read-out: IC50
T1 construct: n-terminal 6-His fusion protein in E. coli and corresponding to aa 8-360; 6-His (N); made in house; host or cells: E. coli
From the text: Table 1 contains representative data for Examples disclosed herein.

T1 sequence (P28482 8-360): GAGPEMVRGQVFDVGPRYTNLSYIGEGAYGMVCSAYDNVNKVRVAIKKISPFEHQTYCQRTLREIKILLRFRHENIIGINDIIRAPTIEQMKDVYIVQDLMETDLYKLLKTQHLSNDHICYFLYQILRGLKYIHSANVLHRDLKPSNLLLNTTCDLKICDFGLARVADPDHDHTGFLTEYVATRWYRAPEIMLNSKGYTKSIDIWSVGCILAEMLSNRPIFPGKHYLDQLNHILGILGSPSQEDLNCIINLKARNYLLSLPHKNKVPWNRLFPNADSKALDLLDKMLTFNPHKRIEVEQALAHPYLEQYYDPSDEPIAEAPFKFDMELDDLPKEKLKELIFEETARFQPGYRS

pIC50, > 7.00:
COc1ccc(Cn2nnc3cc(-c4ccnc(Nc5cnn(C)c5)n4)ccc32)cc1F [Example 2, 4-(1-(3-fluoro-4-methoxybenzyl)-1H-benzo[d][1,2,3]triazol-5-yl)-N-(1-methyl-1H-pyrazol-4-yl)pyrimidin-2-amine]
Cn1nccc1Nc1nccc(-c2ccc3c(c2)nnn3CCc2ccc(Cl)cc2)n1 [Example 3, 4-(1-(4-chlorophenethyl)-1H-benzo[d][1,2,3]triazol-5-yl)-N-(1-methyl-1H-pyrazol-5-yl)pyrimidin-2-amine]
COc1ccc(Cn2nnc3cc(-c4ccnc(N[C@H]5CCOC[C@H]5F)n4)ccc32)cc1F [Example 7, 4-(1-(3-fluoro-4-methoxybenzyl)-1H-benzo[d][1,2,3]triazol-5-yl)-N-((3S,4S)-3-fluorotetrahydro-2H-pyran-4-yl)pyrimidin-2-amine]
COc1ccc(Cn2nnc3cc(-c4ccnc(Nc5cnn(C)n5)n4)ccc32)cc1F [Example 9, 4-(1-(3-fluoro-4-methoxybenzyl)-1H-benzo[d][1,2,3]triazol-5-yl)-N-(2-methyl-2H-1,2,3-triazol-4-yl)pyrimidin-2-amine]
COc1ccc(Cn2nnc3cc(-c4ccnc(NC5COC5)n4)ccc32)cc1F [Example 10, 4-(1-(3-fluoro-4-methoxybenzyl)-1H-benzo[d][1,2,3]triazol-5-yl)-N-(oxetan-3-yl)pyrimidin-2-amine]
COc1ccc(Cn2nnc3cc(-c4ccnc(Nc5nnc(C)s5)n4)ccc32)cc1F [Example 11, N-(4-(1-(3-fluoro-4-methoxybenzyl)-1H-benzol[d][1,2,3]triazol-5-yl)pyrimidin-2-yl)-5-methyl-1,3,4-thiadiazol-2-amine]
COc1ccc(Cn2nnc3cc(-c4ccnc(NC5CCC5)n4)ccc32)cc1F [Example 12, N-cyclobutyl-4-(1-(3-fluoro-4-methoxybenzyl)-1H-benzo[d][1,2,3]triazol-5-yl)pyrimidin-2-amine]
COc1ccc(Cn2nnc3cc(-c4ccnc(NC(C)C)n4)ccc32)cc1F [Example 13, 4-(1-(3-fIuoro-4-methoxybenzyl)-1H-benzo[d][1,2,3]triazol-5-yl)-N-isopropylpyrimidin-2-amine]
COc1ccc(Cn2nnc3cc(-c4ccnc(NCC5CC5)n4)ccc32)cc1F [Example 14, N-(cyclopropylmethyl)-4-(1-(3-fluoro-4-methoxybenzyl)-1H-benzo[d][1,2,3]triazol-5-yl)pyrimidin-2-amine]
COc1ccc(Cn2nnc3cc(-c4ccnc(NC5CC5)n4)ccc32)cc1F [Example 15, N-cyclopropyl-4-(1-(3-fluoro-4-methoxybenzyl)-1H-benzo[d][1,2,3]triazol-5-yl)pyrimidin-2-amine]
COc1ccc(Cn2nnc3cc(-c4ccnc(NCC(C)(C)CO)n4)ccc32)cc1F [Example 16]
COc1ccc(Cn2nnc3cc(-c4ccnc(NCC5COC5)n4)ccc32)cc1F [Example 17, 4-(1-(3-fluoro-4-methoxybenzyl)-1H-benzo[d][1,2,3]triazol-5-yl)-N-(oxetan-3-ylrnethyl)pyrimidin-2-amine]
COc1ccc(Cn2nnc3cc(-c4ccnc(NCC(C)(C)O)n4)ccc32)cc1F [Example 18, 1-((4-(1-(3-fluoro-4-methoxybenzyl)-1H-benzo[d][1,2,3]triazol-5-yl)pyrimidin-2-yl)amino)-2-methylpropan-2-ol]
COc1ccc(Cn2nnc3cc(-c4ccnc(N[C@@H](C)CO)n4)ccc32)cc1F [Example 19, (S)-2-((4-(1-(3-fluoro-4-methoxybenzyl)-1H-benzo[d][1,2,3]triazol-5-yl)pyrimidin-2-yl)amino)propan-1-ol]
COc1ccc(Cn2nnc3cc(-c4ccnc(NC[C@@H](O)CO)n4)ccc32)cc1F [Example 20, (R)-3-((4-(1-(3-fluoro-4-methoxybenzyl)-1H-benzo[d][1,2,3]triazol-5-yl)pyrimidin-2-yl)amino)propane-1,2-diol]
COc1ccc(Cn2nnc3cc(-c4ccnc(NC5(C)COC5)n4)ccc32)cc1F [Example 21, 4-(1-(3-fluoro-4-methoxybenzyl)-1H-benzo[d][1,2,3]triazol-5-yl)-N-(3-methyloxetan-3-yl)pyrimidin-2-amine]
COc1ccc(Cn2nnc3cc(-c4ccnc(NC(C)(C)CN5CCOCC5)n4)ccc32)cc1F [Example 23, 4-(1-(3-fluoro-4-methoxybenzyl)-1H-benzo[d][1,2,3]triazol-5-yl)-N-(2-methyl-1-morpholinopropan-2-yl)pyrimidin-2-amine]
COc1ccc(Cn2nnc3cc(-c4ccnc(Nc5nnnn5C)n4)ccc32)cc1F [Example 24, 4-(1-(3-fluoro-4-methoxybenzyl)-1H-benzo[d][1,2,3]triazol-5-yl)-N-(1-methyl-1H-tetrazol-5-yl)pyrimidin-2-amine]
COc1ccc(Cn2nnc3cc(-c4ccnc(Nc5cc(C6CC6)nn5C)n4)ccc32)cc1F [Example 25, N-(3-cyclopropyl-1-methyl-1H-pyrazol-5-yl)-4-(1-(3-fluoro-4-methoxybenzyl)-1H-benzoyl[d][1,2,3]triazol-5-yl)pyrimidin-2-amine]
COc1ccc(Cn2nnc3cc(-c4ccnc(Nc5nnn(C)n5)n4)ccc32)cc1F [Example 26, 4-(1-(3-fluoro-4-methoxybenzyl)-1H-benzoyl[d][1,2,3]triazol-5-yl)-N-(2-methyl-2H-tetrazol-5-yl)pyrimidin-2-amine]
CCC(C)Cn1nnc2cc(-c3ccnc(Nc4ccnn4C)n3)ccc21 (centres unmarked) [Example 27]
CCC(CC)Cn1nnc2cc(-c3ccnc(Nc4ccnn4C)n3)ccc21 [Example 28, 4-(1-(2-ethylbutyl)-1H-benzo[d][1,2,3]triazol-5-yl)-N(1-methyl-1H-pyrazol-5-yl)pyrimidin-2-amine]
Cn1nccc1Nc1nccc(-c2ccc3c(c2)nnn3CC2CCCC2)n1 [Example 29, 4-(1-(cyclopentylmethyl)-1H-benzo[d][1,2,3]triazol-5-yl)-N-(1-methyl-1H-pyrazol-5-yl)pyrimidin-2-amine]
COC(C)Cn1nnc2cc(-c3ccnc(Nc4ccnn4C)n3)ccc21 (centres unmarked) [Example 30, 4-(1-(2-methoxypropyl)-1H-benzo[d][1,2,3]triazol-5-yl)-N-(1-methyl-1H-pyrazol-5-yl)pyrimidin-2-amine]
Cn1nccc1Nc1nccc(-c2ccc3c(c2)nnn3CC(C)(F)F)n1 [Example 31, 4-(1-(2,2-difluoropropyl)-1H-benzo[d][1,2,3]triazol-5-yl)-N-(1-methyl-1H-pyrazol-5-yl)pyrimidin-2-amine]
Cn1ccc(Cn2nnc3cc(-c4ccnc(Nc5ccnn5C)n4)ccc32)n1 [Example 32, 4-(1-((1-methyl-1H-pyrazol-3-yl)methyl)-1H-benzo[d][1,2,3]triazol-5-yl)-N-(1-methyl-1H-pyrazol-5-yl)pyrimidin-2-amine]
Cn1nccc1Nc1nccc(-c2ccc3c(c2)nnn3CC2CC(F)(F)C2)n1 [Example 34, 4-(1-((3,3-difluorocyclobutyl)methyl)-1H-benzo[d][1,2,3]triazol-5-yl)-N-(1-methyl-1H-pyrazol-5-yl)pyrimidin-2-amine]
CN1CC(Cn2nnc3cc(-c4ccnc(Nc5ccnn5C)n4)ccc32)C1 [Example 36, N-(1-methyl-1H-pyrazol-5-yl)-4-(1-((1-methylazetidin-3-yl)methyl)-1H-benzo[d][1,2,3]triazol-5-yl)pyrimidin-2-amine]
Cn1nccc1Nc1nccc(-c2ccc3c(c2)nnn3CC(F)F)n1 [Example 37, 4-(1-(2,2-difluoroethyl)-1H-benzo[d][1,2,3]triazol-5-yl)-N-(1-methyl-1H-pyrazol-5-yl)pyrimidin-2-amine]
CC(C)Cn1nnc2cc(-c3ccnc(Nc4ccnn4C)n3)ccc21 [Example 38, 4-(1-isobutyl-1H-benzo[d][1,2,3]triazol-5-yl)-N-(1-methyl-1H-pyrazol-5-yl)pyrimidin-2-amine]
Cn1nccc1Cn1nnc2cc(-c3ccnc(Nc4ccnn4C)n3)ccc21 [Example 39, N-(1-methyl-1H-pyrazol-5-yl)-4-(1-((1-methyl-1H-pyrazol-5-yl)methyl)-1H-benzo[d][1,2,3]triazol-5-yl)pyrimidin-2-amine]
Cn1nccc1Nc1nccc(-c2ccc3c(c2)nnn3CCCF)n1 [Example 40, 4-(1-(3-fluoropropyl)-1H-benzo[d][1,2,3]triazol-5-yl)-N-(1-methyl-1H-pyrazol-5-yl)pyrimidin-2-amine]
CC(O)CCn1nnc2cc(-c3ccnc(Nc4ccnn4C)n3)ccc21 (centres unmarked) [Example 41, 4-(5-(2-((1-methyl-1H-pyrazol-5-yl)amino)pyrimidin-4-yl)-1H-benzo[d][1,2,3]triazol-1-yl)butan-2-ol]
COCCCn1nnc2cc(-c3ccnc(Nc4ccnn4C)n3)ccc21 [Example 42, 4-(1-(3-methoxypropyl)-1H-benzo[d][1,2,3]triazol-5-yl)-N-(1-methyl-1H-pyrazol-5-yl)pyrimidin-2-amine]
COC(C)(C)Cn1nnc2cc(-c3ccnc(Nc4ccnn4C)n3)ccc21 [Example 44, 4-(1-(2-methoxy-2-methylpropyl)-1H-benzo[d][1,2,3]triazol-5-yl)-N-(1-methyl-1H-pyrazol-5-yl)pyrimidin-2-amine]
